Earlier results in publication PMC9460038, “Antigiardial Activity of Foeniculum vulgare Hexane Extract and Some of Its Constituents” (Plants, 2022).

Tested on: multidrug resistant (MDR) clinical isolates of Mycobacterium tuberculosis
Conditions: three MDR clinical isolates; cited from earlier work

In the case of `CCCCCC/C=C/C=C/C=O` [Trans, trans-2,4-undecadienal, trans, trans-2,4-undecadienal], the MIC is given as 25 to 50 µg/mL.
